Data as given in ChEMBL document CHEMBL5380818, “BAY-6096: A Potent, Selective, and Highly Water-Soluble Adrenergic α2B Antagonist” (J Med Chem, 2023).
Values after ≈ are worked out from the molar mass of the structure shown.

What was measured:
[1] = Mutagenecity in Salmonella typhimurium in presence of s9 fraction by Ames test; format: toxicity, subcellular; details: salmonella enterica subsp. enterica serovar typhimurium
[2] = Plasma protein binding in rat plasma assessed as unbound fraction by equilibrium dialysis base LC-MS/MS analysis; format: ADME, cell-free
[3] = Chemical stability of the compound at pH 1 measured upto 7 days; format: physicochemical; details: buffer, pH 1, 168 h; time < 7 day
[4] = Stability of the compound assessed as no adsorption to the sterile filter at pH 7.4 in 0.9% NaCl by measuring feasibility of sterilization at 121 degC for 15 mins using HPLC analysis; format: physicochemical; details: buffer
Cytochrome P450 3A4 [5] = biological target: T1, Cytochrome P450 3A4 (Homo sapiens, UniProt P08684); experiment: Induction of human hepatocyte CYP3A4 treated upto 211 uM for 48 hrs by measuring mRNA expression using delta delta Ct method; format: ADME, cell-based; details: hepatocytes
[6] = Plasma protein binding in monkey plasma assessed as unbound fraction by equilibrium dialysis base LC-MS/MS analysis; format: ADME, cell-free, Macaca mulatta; details: rhesus monkey
Cytochrome P450 2C8 = biological target: T2, Cytochrome P450 2C8 (Homo sapiens, UniProt P10632); experiment: Inhibition of human liver microsome CYP2C8 at 0.6 to 20 uM measured by LC/MS/MS analysis; format: ADME; details: microsomes, dose 0.6-20 µM
T2 sequence (P10632 whole entry): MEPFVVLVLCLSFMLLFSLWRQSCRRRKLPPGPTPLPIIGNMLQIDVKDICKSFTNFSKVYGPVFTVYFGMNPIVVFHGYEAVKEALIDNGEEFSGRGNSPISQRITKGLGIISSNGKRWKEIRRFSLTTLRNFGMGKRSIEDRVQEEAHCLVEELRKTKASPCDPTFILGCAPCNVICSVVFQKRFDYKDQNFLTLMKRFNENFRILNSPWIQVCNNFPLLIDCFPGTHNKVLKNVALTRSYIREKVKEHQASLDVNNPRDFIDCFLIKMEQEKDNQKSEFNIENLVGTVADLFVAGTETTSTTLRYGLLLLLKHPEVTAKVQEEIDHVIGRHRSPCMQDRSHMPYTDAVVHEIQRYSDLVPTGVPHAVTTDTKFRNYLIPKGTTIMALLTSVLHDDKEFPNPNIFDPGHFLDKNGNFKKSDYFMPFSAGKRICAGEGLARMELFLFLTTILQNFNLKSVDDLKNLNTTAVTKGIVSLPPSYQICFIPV

[7] = Stability of the compound assessed as no adsorption to the sterile filter at pH 7.4 in 0.9% NaCl by measuring feasibility of sterilization using HPLC analysis; format: physicochemical; details: buffer
[8] = Permeability across apical to basolateral side human Caco-2 cells incubated for 2 hrs measured by LC/MS/MS analysis; format: ADME, cell-based; details: caco-2, 2 h
[9] = Chemical stability of the compound in 0.9% NaCl at pH 7.4 measured for 13 week at 40 degC; format: physicochemical; details: buffer, pH 7.4, 2184 h; time 13 weeks
Cytochrome P450 2D6 = Cytochrome P450 2D6 (Homo sapiens, UniProt P10635); experiment: Inhibition of human liver microsome CYP2D6 at 0.6 to 20 uM measured by LC/MS/MS analysis; format: ADME; details: microsomes, dose 0.6-20 µM
[10] = Mean residence time in Wistar rat plasma 0.3 mg/kg, iv measured upto 24 hrs by LC-MS/MS analysis; format: ADME, organism-based; details: in vivo
Cytochrome P450 3A4 [11] = biological target: T1, Cytochrome P450 3A4; experiment: Inhibition of human liver microsome CYP3A4 at 0.6 to 20 uM measured by LC/MS/MS analysis; format: ADME; details: microsomes, dose 0.6-20 µM
Cytochrome P450 1A2 [12] = biological target: T3, Cytochrome P450 1A2 (Homo sapiens, UniProt P05177); experiment: Inhibition of human liver microsome CYP1A2 at 0.6 to 20 uM measured by LC/MS/MS analysis; format: ADME; details: microsomes, dose 0.6-20 µM
T3 sequence (P05177 whole entry): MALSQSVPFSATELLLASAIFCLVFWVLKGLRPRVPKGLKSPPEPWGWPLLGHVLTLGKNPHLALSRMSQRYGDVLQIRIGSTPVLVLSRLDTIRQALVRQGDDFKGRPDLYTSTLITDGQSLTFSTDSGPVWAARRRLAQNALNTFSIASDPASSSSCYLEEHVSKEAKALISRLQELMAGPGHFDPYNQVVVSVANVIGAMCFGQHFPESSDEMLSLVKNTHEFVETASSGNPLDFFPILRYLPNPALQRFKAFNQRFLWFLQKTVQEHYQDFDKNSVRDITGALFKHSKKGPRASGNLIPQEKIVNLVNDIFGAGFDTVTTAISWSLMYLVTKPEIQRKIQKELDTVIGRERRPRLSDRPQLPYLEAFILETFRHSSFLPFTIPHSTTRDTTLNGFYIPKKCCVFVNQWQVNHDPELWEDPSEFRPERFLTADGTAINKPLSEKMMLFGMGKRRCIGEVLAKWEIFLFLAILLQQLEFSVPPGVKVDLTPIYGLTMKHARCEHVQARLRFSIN

Cytochrome P450 2C9 = Cytochrome P450 2C9 (Homo sapiens, UniProt P11712); experiment: Inhibition of human liver microsome CYP2C9 at 0.6 to 20 uM measured by LC/MS/MS analysis; format: ADME; details: microsomes, dose 0.6-20 µM
[13] = Plasma protein binding in human plasma assessed as unbound fraction by equilibrium dialysis base LC-MS/MS analysis; format: ADME, cell-free
[14] = Chemical stability of the compound at pH 7 measured upto 7 days; format: physicochemical; details: buffer, pH 7, 168 h; time < 7 day
[15] = Chemical stability of the compound in 0.9% NaCl at pH 7.4 measured upto 1 week at 90 degC; format: physicochemical; details: buffer, pH 7.4, 168 h; time < 1 weeks
[16] = Plasma protein binding in dog plasma assessed as unbound fraction by equilibrium dialysis base LC-MS/MS analysis; format: ADME, cell-free, Canis lupus familiaris
[17] = biological target: Sodium channel protein type 5 subunit alpha (Homo sapiens, UniProt Q14524); experiment: Inhibition of human Nav1.5 channel; format: toxicity
[18] = biological target: Voltage-dependent L-type calcium channel subunit alpha-1C (Homo sapiens, UniProt Q13936); experiment: Inhibition of human Cav1.2 channel; format: toxicity
[19] = Chemical stability of the compound at pH 10 measured upto 7 days; format: physicochemical; details: buffer, pH 10, 168 h; time < 7 day
Cytochrome P450 1A2 [20] = biological target: T3, Cytochrome P450 1A2; experiment: Induction of human hepatocyte CYP1A2 treated upto 211 uM for 48 hrs by measuring mRNA expression using delta delta Ct method; format: ADME, cell-based; details: hepatocytes
[21] = biological target: Voltage-gated inwardly rectifying potassium channel KCNH2 (Homo sapiens, UniProt Q12809); experiment: Inhibition of hERG by electrode whole cell voltage clamp method; format: toxicity
[22] = Volume of distribution at steady state in dog plasma 0.3 mg/kg, iv measured 0.033 to 24 hrs by LC-MS/MS analysis; format: ADME, organism-based, Canis lupus familiaris; details: time 0.033-24 hrs, read-out: Vdss
[23] = Clearance in dog plasma 0.3 mg/kg, iv measured 0.033 to 24 hrs by LC-MS/MS analysis; format: ADME, organism-based, Canis lupus familiaris; details: time 0.033-24 hrs
[24] = Volume of distribution at steady state in Wistar rat plasma 0.3 mg/kg, iv measured upto 24 hrs by LC-MS/MS analysis; format: ADME, organism-based; details: in vivo
[25] = Clearance in Wistar rat plasma 0.3 mg/kg, iv measured upto 24 hrs by LC-MS/MS analysis; format: ADME, organism-based; details: in vivo
[26] = Solubility of the compound in pH 7 shaken for 24 hrs; format: physicochemical; details: buffer
[27] = Metabolic stability in rat liver microsomes at pH 7.4 in presence of NADPH/UDPGA by LC/MS/MS analysis; format: ADME, Microsome
[28] = Chemical stability of the compound assessed as decomposition at pH 1 measured upto 24 hrs; format: physicochemical; details: buffer, pH 1, 24 h
[29] = Chemical stability of the compound assessed as decomposition at pH 10 measured upto 24 hrs; format: physicochemical; details: buffer, pH 10, 24 h
[30] = Chemical stability of the compound assessed as decomposition at pH 7 measured upto 24 hrs; format: physicochemical; details: buffer, pH 7, 24 h
[31] = Metabolic stability in cryopreserved dog liver hepatocytes at 10 uM incubated upto 4 hrs by LC/MS/MS analysis; format: ADME, cell-based, Canis lupus familiaris, Hepatocyte
[32] = Metabolic stability in cryopreserved rat liver hepatocytes at 10 uM incubated upto 4 hrs by LC/MS/MS analysis; format: ADME, cell-based, Hepatocyte
[33] = Metabolic stability in dog liver microsomes at pH 7.4 in presence of NADPH/UDPGA by LC/MS/MS analysis; format: ADME, Canis lupus familiaris, Microsome
[34] = Metabolic stability in cryopreserved human liver hepatocytes at 10 uM incubated upto 4 hrs by LC/MS/MS analysis; format: ADME, cell-based, Hepatocyte
[35] = biological target: T4, Alpha-2B adrenergic receptor (Homo sapiens, UniProt P18089); experiment: Antagonist activity at human recombinant adrenergic alpha2B receptor expressed in CHO cell treated with compound for 5 mins followed by norepinephrine measured for 50 secs by microtitre plate method; format: functional, cell-based
T4 sequence (P18089 whole entry): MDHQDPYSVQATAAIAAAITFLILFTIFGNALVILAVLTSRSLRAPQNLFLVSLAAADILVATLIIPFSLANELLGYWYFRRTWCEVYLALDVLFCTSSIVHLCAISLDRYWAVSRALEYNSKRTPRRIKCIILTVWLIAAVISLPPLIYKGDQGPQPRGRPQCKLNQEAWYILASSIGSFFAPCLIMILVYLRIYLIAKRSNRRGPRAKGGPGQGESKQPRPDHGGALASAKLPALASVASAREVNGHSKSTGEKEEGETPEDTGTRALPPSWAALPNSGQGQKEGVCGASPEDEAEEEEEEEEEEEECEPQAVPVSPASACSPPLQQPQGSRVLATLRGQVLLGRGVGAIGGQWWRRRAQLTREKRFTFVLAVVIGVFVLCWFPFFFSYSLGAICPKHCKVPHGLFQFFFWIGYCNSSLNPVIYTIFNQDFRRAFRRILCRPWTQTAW

T1 sequence (P08684 whole entry): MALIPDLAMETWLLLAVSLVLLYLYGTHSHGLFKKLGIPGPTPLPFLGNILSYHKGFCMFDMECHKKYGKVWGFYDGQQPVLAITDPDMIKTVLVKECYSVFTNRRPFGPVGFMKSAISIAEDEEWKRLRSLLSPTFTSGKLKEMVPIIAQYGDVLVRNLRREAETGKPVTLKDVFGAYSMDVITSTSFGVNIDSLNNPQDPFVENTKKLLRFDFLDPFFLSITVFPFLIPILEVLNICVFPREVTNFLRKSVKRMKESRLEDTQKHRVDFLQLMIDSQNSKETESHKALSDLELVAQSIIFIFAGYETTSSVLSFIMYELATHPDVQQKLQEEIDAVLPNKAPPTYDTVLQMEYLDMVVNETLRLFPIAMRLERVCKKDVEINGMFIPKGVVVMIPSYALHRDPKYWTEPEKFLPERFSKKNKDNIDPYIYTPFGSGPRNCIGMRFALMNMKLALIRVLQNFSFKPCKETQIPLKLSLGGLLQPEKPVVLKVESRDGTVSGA
Voltage-gated inwardly rectifying potassium channel KCNH2, sequence (Q12809 whole entry): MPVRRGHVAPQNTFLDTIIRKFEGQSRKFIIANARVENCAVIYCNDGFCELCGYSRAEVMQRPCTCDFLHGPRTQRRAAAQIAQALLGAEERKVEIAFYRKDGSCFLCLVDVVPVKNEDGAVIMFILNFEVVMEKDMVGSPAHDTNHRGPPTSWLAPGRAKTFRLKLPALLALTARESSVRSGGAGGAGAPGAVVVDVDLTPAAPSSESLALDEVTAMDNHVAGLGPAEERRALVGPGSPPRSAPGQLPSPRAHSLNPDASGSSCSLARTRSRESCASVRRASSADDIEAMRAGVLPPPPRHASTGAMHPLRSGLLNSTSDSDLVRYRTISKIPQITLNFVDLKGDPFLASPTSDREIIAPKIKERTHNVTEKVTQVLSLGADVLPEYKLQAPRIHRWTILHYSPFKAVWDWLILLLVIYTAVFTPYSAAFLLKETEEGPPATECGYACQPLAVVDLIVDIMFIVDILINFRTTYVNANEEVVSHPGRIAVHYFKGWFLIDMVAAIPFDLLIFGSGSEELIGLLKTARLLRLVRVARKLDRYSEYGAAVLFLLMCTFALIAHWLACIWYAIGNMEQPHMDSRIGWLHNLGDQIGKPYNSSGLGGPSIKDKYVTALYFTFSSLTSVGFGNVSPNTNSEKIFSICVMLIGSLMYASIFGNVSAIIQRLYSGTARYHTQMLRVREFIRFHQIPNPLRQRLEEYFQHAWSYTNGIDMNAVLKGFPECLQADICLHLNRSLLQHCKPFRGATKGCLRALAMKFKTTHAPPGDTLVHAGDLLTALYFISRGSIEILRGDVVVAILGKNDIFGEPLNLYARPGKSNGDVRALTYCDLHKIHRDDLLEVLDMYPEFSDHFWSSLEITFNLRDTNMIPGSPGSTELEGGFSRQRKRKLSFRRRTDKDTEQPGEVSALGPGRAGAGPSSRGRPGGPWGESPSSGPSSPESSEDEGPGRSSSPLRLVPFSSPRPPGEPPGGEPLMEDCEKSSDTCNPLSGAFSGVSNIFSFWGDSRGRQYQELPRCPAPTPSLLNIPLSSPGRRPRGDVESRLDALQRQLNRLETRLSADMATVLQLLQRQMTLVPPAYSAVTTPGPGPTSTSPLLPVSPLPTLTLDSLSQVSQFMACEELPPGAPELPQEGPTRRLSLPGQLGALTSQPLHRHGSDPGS
Cytochrome P450 2D6, sequence (P10635 whole entry): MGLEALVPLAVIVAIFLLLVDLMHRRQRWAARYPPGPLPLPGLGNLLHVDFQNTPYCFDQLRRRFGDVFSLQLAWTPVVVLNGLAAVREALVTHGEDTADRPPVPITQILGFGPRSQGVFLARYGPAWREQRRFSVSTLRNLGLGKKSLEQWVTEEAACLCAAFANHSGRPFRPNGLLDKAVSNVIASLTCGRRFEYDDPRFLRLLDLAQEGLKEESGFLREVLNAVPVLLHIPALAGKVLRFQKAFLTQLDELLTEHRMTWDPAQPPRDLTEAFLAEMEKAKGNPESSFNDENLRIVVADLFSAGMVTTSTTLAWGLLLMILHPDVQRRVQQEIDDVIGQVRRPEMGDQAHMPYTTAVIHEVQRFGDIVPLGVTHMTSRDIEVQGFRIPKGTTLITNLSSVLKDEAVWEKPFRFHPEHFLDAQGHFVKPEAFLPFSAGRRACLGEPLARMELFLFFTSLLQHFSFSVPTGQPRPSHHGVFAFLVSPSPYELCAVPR
Sodium channel protein type 5 subunit alpha, sequence (Q14524 whole entry): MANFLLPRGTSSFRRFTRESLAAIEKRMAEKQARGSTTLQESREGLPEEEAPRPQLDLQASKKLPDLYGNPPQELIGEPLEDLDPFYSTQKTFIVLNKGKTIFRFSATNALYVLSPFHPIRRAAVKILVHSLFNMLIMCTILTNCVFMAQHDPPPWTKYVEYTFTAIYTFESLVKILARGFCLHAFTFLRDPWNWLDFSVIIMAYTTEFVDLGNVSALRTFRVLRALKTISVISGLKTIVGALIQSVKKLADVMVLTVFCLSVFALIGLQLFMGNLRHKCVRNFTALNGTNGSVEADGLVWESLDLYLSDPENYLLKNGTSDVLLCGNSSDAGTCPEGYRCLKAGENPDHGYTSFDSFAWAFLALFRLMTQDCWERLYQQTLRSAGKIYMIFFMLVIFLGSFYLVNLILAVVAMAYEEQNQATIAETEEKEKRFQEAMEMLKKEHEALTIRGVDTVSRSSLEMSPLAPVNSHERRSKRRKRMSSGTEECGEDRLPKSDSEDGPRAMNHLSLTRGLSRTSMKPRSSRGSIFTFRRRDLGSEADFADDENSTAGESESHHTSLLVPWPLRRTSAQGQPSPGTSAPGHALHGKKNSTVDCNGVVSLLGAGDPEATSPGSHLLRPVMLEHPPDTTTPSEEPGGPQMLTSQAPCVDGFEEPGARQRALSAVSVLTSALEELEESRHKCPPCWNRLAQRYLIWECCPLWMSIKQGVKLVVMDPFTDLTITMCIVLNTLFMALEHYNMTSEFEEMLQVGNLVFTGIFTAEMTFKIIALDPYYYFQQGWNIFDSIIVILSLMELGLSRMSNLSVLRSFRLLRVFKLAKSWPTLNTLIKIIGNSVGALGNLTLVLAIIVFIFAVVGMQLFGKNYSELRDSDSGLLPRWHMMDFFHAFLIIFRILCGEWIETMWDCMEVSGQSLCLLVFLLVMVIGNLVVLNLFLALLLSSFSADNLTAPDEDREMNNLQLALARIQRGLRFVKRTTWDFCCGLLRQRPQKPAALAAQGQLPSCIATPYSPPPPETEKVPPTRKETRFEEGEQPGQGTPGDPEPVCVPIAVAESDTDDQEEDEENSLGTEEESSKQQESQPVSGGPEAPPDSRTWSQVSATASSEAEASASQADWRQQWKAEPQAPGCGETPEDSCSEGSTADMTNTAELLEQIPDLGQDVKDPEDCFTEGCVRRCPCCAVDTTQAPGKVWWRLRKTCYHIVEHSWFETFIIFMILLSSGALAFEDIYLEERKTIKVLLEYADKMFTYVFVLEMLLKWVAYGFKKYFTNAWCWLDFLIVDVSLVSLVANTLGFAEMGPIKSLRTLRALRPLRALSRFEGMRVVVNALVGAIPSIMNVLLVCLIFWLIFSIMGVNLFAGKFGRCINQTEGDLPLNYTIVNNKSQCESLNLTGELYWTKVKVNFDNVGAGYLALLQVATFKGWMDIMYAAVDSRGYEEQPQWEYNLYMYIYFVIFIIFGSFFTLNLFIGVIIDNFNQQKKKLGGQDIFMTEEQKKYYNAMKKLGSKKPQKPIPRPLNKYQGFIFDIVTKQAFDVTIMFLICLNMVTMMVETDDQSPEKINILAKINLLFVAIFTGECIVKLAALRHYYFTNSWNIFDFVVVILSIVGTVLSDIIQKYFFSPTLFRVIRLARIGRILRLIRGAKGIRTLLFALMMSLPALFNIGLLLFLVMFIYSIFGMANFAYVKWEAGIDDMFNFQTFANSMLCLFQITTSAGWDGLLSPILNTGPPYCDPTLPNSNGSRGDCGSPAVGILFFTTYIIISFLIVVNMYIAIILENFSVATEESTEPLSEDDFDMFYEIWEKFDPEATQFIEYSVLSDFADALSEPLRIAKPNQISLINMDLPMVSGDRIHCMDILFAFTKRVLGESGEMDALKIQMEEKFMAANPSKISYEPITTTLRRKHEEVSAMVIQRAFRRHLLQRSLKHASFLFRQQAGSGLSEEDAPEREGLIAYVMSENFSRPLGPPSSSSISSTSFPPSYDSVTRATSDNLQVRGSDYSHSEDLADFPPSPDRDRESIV
Cytochrome P450 2C9, sequence (P11712 whole entry): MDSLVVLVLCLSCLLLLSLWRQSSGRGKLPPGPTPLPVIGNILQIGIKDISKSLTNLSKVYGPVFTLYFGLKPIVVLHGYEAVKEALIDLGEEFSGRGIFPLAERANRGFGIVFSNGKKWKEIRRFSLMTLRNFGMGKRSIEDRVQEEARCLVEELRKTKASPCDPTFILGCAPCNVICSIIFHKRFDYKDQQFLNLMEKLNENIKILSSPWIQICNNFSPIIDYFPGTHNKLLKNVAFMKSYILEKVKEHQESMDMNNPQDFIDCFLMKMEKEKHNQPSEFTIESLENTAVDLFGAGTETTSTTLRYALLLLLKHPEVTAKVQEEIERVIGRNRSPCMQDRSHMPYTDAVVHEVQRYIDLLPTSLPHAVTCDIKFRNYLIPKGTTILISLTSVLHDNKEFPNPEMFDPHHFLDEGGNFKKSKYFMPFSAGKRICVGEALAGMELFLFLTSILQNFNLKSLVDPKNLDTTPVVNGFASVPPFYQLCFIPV

## CNc1cc[n+](CC(=O)Nc2cccc(C)c2)cc1.O=C[O-]
[1]
  Activity: Non-Toxic

## CNc1cc[n+](CCNC(=O)c2ccn3c(-c4c(C)noc4C)cnc3c2)cc1.[Cl-]
[2]
  Fu: 79%
[3]
  Stability: Stable
[4]
  Stability: Stable
Cytochrome P450 3A4 [5]
  Activity: Not Active
[6]
  Fu: 92%
Cytochrome P450 2C8
  inhibition (INH): Not Active
[7]
  Stability: Stable
[8]
  permeability: 0.3 ×10⁻⁶ cm/s
[9]
  Stability: Stable
Cytochrome P450 2D6
  inhibition (INH): Not Active
[10]
  MRT: 6 min
Cytochrome P450 3A4 [11]
  inhibition (INH): Not Active
[1]
  Activity: Non-Toxic
Cytochrome P450 1A2 [12]
  inhibition (INH): Not Active
Cytochrome P450 2C9
  inhibition (INH): Not Active
[13]
  Fu: 85%
[14]
  Stability: Stable
[15]
  Stability: Stable
[16]
  Fu: 82%
[17]
  inhibition (INH): Not Active
[18]
  inhibition (INH): Not Active
[19]
  Stability: Stable
Cytochrome P450 1A2 [20]
  Activity: Not Active
[21]
  inhibition (INH): Not Active
[22]
  Vd: 0.6 L/kg
[23]
  clearance: 26.7 mL/min/kg
[24]
  Vdss: 0.5 L/kg
[25]
  CL: 71.7 mL/min/kg

## CNc1cc[n+](CC(=O)Nc2cnc3c(c2)ncn3-c2ccccc2OC)cc1.O=C[O-]
[1]
  Activity: Toxic

## COc1ccccc1-n1cnc2cc(NC(C)=O)ccc21
[26]
  solubility thermodynamic at 24 h: 300 µg/mL (≈ 1070 µM)

## CNc1cc[n+](CCNC(=O)c2ccc3c(c2)ncn3-c2c(C)noc2C)cc1.O=C[O-]
[1]
  Activity: Non-Toxic

## CNc1cc[n+](CC(=O)Nc2ccc3c(c2)ncn3-c2c(C)noc2C)cc1.O=C[O-]
[27]
  Stability: Stable
[28]
  Stability: Stable
[8]
  permeability: 0.36 ×10⁻⁶ cm/s
[29]
  Stability: Stable
[1]
  Activity: Toxic
[30]
  Stability: Stable
[31]
  Stability: Stable
[32]
  Stability: Stable
[33]
  Stability: Stable
[34]
  Stability: Stable

## Cc1noc(C)c1N
[1]
  Activity: Non-Toxic

## COc1ccccc1-n1cnc2cc(NC(=O)CCc3ccccn3)ccc21
[26]
  solubility thermodynamic at 24 h: 20 µg/mL (≈ 53.7 µM)

## CNc1cc[n+](CC(Nc2ccc3c(c2)ncn3-c2c(C)noc2C)C(F)(F)F)cc1 (racemic)
[35]
  IC50: 7.05 µM

## Cc1noc(C)c1-n1cnc2cc(N)ccc21
[1]
  Activity: Toxic

## CNc1ccncc1
[1]
  Activity: Non-Toxic
